Common to all, as to type: in vivo
Data set [1] relates to Aphis craccivora (Black bean aphid). Kind of data set: Aphis craccivora (Black bean aphid), mixed population, systemic/feeding, pea seedlings in test solutions. The settings on record: 120 h, application rate of 24 ppm, assessed 5 days later, read-out: growth inhibition. How it is done: Aphis craccivora (Black bean aphid), mixed population, systemic/feeding Pea seedlings infested with mixed aged aphid population, were put into glass vials with test solutions. 5 days later, samples were assessed for mortality.

Data set [2] has as its system Myzus persicae (Green peach aphid). Briefly: Myzus persicae (Green peach aphid) intrinsic activity, sucrose solution feeding through Parafilm. The settings on record: test rate of 12 ppm, assessed 5 days after infestation; for mortality at 12 ppm: Myzus persicae, 120 h. The source says: Myzus persicae (Green peach aphid) Intrinsic activity
Test compounds prepared from 10,000 ppm DMSO stock solutions were applied by pipette into 24-well microtiter plates and mixed with sucrose solution. The plates were closed with a stretched Parafilm. A plastic stencil with 24 holes was placed onto the plate and infested pea seedlings were placed directly on the Parafilm. The infested plate was closed with a gel blotting paper and another plastic stencil and then turned upside down. The samples were assessed for mortality 5 days after infestation.

For data set [3] the test system is unchanged. Briefly: Myzus persicae (Green peach aphid) feeding/contact activity, sprayed eggplant leaf discs. The settings on record: application rate of 200 ppm, assessed 6 days after infestation. How it is done:
Myzus persicae (Green peach aphid) Feeding/Contact activity Eggplant leaf discs were placed onto agar in a 24-well microtiter plate and sprayed with aqueous test solutions prepared from 10,000 ppm DMSO stock solutions. After drying, the leaf discs were infested with an aphid population of mixed ages. The samples were assessed for mortality 6 days after infestation.

Data set [4] shares this test system. Kind of data set: Myzus persicae (Green peach aphid) systemic activity, pea seedling roots in test solution. The settings on record: 144 h, test rate of 24 ppm, assessed 6 days after placing seedlings into test solutions. On the procedure:
Myzus persicae (Green peach aphid) Systemic activity
Roots of pea seedlings infested with an aphid population of mixed ages were placed directly into aqueous test solutions prepared from 10,000 DMSO stock solutions. The samples were assessed for mortality 6 days after placing seedlings into test solutions.

As to `OCCCCCCC1CC1(F)Br` (stereo not shown) [Compound A7, 6-(2-bromo-2-fluoro-cyclopropyl)hexan-1-ol], in data set [1], the inhibition at 24 ppm was at least 80%.

On to “N-[4-(2-bromo-2-fluoro-cyclopropyl)butyl]-3,5-dimethyl-isoxazole-4-sulfonamide [Compound A11]”, for which the mortality result in data set [2] was “at least 80%”.

In turn, `O=C(NCCCCC1CC1(F)Br)N1CCCCC1` (stereo not shown) [Compound A43, N-[4-(2-bromo-2-fluoro-cyclopropyl)butyl]piperidine-1-carboxamide] registered a mortality at 12 ppm in data set [2] of at least 80%.

For the compound “N-[4-(2-bromo-2-fluoro-cyclopropyl)butyl]-2,3-dihydro-1,4-benzodioxine-5-sulfonamide [Compound A27]”, in data set [3], the growth inhibition entry is “at least 80%”.

For `O=C(NCCCCC1CC1(F)Br)C1CC1` (stereo not shown) [Compound A24, N-[4-(2-bromo-2-fluoro-cyclopropyl)butyl]cyclopropanecarboxamide], in data set [3] (Myzus persicae, foliar, 144 h, read-out: growth inhibition), the inhibition at 200 ppm was at least 80%.

`O=C(NCCCCCCC1CC1(F)Br)c1ccccc1` (stereo not shown) [Compound A4, N-[6-(2-bromo-2-fluoro-cyclopropyl)hexyl]benzamide] showed a mortality at 24 ppm in data set [4] of at least 80%.

As to `O=C(OCCCCCCC1CC1(F)Br)c1ccccc1` (stereo not shown) [Compound A8, 6-(2-bromo-2-fluoro-cyclopropyl)hexyl benzoate], the inhibition at 24 ppm in data set [1] was at least 80%.

With `OCCCCC1CC1(F)Br` (stereo not shown) [Compound A9, 4-(2-bromo-2-fluoro-cyclopropyl)butan-1-ol], the mortality at 12 ppm in data set [2] is at least 80%. The inhibition at 24 ppm in data set [1] was at least 80%.

In the case of “N-[4-(2-bromo-2-fluoro-cyclopropyl)butyl]-6-methyl-pyridine-3-sulfonamide [Compound A10]”, the growth inhibition result in data set [3] was “at least 80%”.

By inhibition is commonly meant how much of the control response was suppressed. In general, mortality refers to the percentage killed. A low value points to a weak lethal effect.

Source of the values: patent EP4667451A1, “PESTICIDALLY-ACTIVE 2,2-DIHALOCYCLOPROPYL COMPOUNDS” (Syngenta Crop Protection AG, priority 2024, dated 2025).
